Data on 11 molecules can be found in PubChem BioAssay (NCI).

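Results reflect a 48-hour exposure of cells in 96-well plates to compound at five concentrations. TGI: total growth inhibition.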 Where a SMILES comes first, the peptide text is derived from it. The star is where a group is joined. Cbz = O=C(OCc1ccccc1)*; OBn = c1ccc(CO*)cc1 Some results are limits rather than exact numbers.

The first assay relates to CAKI-1 renal. The experiment in a line: inhibition of tumour cell growth, NCI panel, 48 h.
`COC(=O)CNC(=O)C(C)NC(=O)C(CC(=O)OCc1ccccc1)NC(=O)OCc1ccccc1` (stereo not drawn) (Cbz-Asp(OBn)-Ala-Gly-OMe; configuration not given here) came in with a TGI greater than 100 µM.
Same read-out and setting: the figure for `CC(C)=CCOc1cc(NC(=S)c2ccoc2C)ccc1Cl` is greater than 100 µM; for `C[C@H]1[C@H](C)N(Cc2ccccc2)P(=O)(C(O)/C=C/c2ccccc2)N1Cc1ccccc1` (some centres not stated) it is greater than 25 µM; for `O=C1CSC2(CC(/C=C/c3ccccc3O)=NN2c2cccc(S(=O)(=O)O)c2)N1c1nc2ccccc2s1` (configuration not stated) it is greater than 100 µM.
The same measure, in the same setting: the figure for `CC1(C)C(=O)N(O)C(C)(C)N1O` is greater than 10 µM.
On to `CCOC(=O)/C(O)=C(/C=N\C(=S)Nc1ccccc1Cl)C(=O)OCC`, for which the TGI was greater than 100 µM.
`O=C(NC(C(F)(F)F)(C(F)(F)F)P(=O)(c1ccccc1)c1ccccc1)C(C(F)(F)F)C(F)(F)F`: the TGI was determined as 0.0564 µM.
The molecule `O=C1CC(=O)NC(=NN2C(=O)CSC2c2ccc(Cl)c(Cl)c2)N1` (configuration not stated) yielded a TGI greater than 100 µM.
With `O=C1NC(N2CCOCC2)=N/C1=C\c1cccs1`, the TGI was greater than 100 µM.
Same read-out and setting: the value for `CSc1nc2ccccc2c(=O)n1/N=C1\C(=O)N(CN2CCCCC2)c2ccc(Cl)cc21` was greater than 100 µM.

The next assay relates to TK-10 renal. In words: inhibition of tumour cell growth, NCI panel, 48 h.
With `COC(=O)CNC(=O)C(C)NC(=O)C(CC(=O)OCc1ccccc1)NC(=O)OCc1ccccc1` (stereo not drawn) (Cbz-Asp(OBn)-Ala-Gly-OMe; configuration not given here), the TGI is greater than 100 µM.
The molecule `CC(C)=CCOc1cc(NC(=S)c2ccoc2C)ccc1Cl` registered a TGI greater than 100 µM.
`C[C@H]1[C@H](C)N(Cc2ccccc2)P(=O)(C(O)/C=C/c2ccccc2)N1Cc1ccccc1` (some centres not stated): the TGI was 24.1 µM.
On the same count and under the same terms, the figure for `O=C1c2cc3c(cc2CC12Cc1cc4c(cc1C2=O)CCCC4)CCCC3` is 75.8 µM; for `O=C1CSC2(CC(/C=C/c3ccccc3O)=NN2c2cccc(S(=O)(=O)O)c2)N1c1nc2ccccc2s1` (configuration not stated) it is 58.5 µM.
`CC1(C)C(=O)N(O)C(C)(C)N1O`: the TGI was greater than 10 µM.
For `O=C(NC(C(F)(F)F)(C(F)(F)F)P(=O)(c1ccccc1)c1ccccc1)C(C(F)(F)F)C(F)(F)F`, the TGI is 72.7 µM.
On the same count and under the same terms, the figure for `O=C1CC(=O)NC(=NN2C(=O)CSC2c2ccc(Cl)c(Cl)c2)N1` (configuration not stated) is greater than 100 µM; for `O=C1NC(N2CCOCC2)=N/C1=C\c1cccs1` it is greater than 100 µM; for `CSc1nc2ccccc2c(=O)n1/N=C1\C(=O)N(CN2CCCCC2)c2ccc(Cl)cc21` it is greater than 100 µM.

In the next assay the test system is EKVX NSCLC. In words: inhibition of tumour cell growth, NCI panel, 48 h.
As to `CC(C)=CCOc1cc(NC(=S)c2ccoc2C)ccc1Cl`, the TGI is greater than 100 µM.
Still for that read-out and setting: the value for `C[C@H]1[C@H](C)N(Cc2ccccc2)P(=O)(C(O)/C=C/c2ccccc2)N1Cc1ccccc1` (some centres not stated) was 24.9 µM; that for `O=C1c2cc3c(cc2CC12Cc1cc4c(cc1C2=O)CCCC4)CCCC3` was greater than 100 µM; that for `O=C1CSC2(CC(/C=C/c3ccccc3O)=NN2c2cccc(S(=O)(=O)O)c2)N1c1nc2ccccc2s1` (configuration not stated) was greater than 100 µM.
Consider `CC1(C)C(=O)N(O)C(C)(C)N1O`, for which the TGI was greater than 10 µM.
Take `CCOC(=O)/C(O)=C(/C=N\C(=S)Nc1ccccc1Cl)C(=O)OCC`: the TGI is greater than 100 µM.
The molecule `O=C(NC(C(F)(F)F)(C(F)(F)F)P(=O)(c1ccccc1)c1ccccc1)C(C(F)(F)F)C(F)(F)F` returned a TGI greater than 100 µM.
`O=C1NC(N2CCOCC2)=N/C1=C\c1cccs1` registered a TGI greater than 100 µM.
The same measure, in the same setting: the value for `CSc1nc2ccccc2c(=O)n1/N=C1\C(=O)N(CN2CCCCC2)c2ccc(Cl)cc21` was greater than 100 µM.

A further assay concerns NCI-H226 lung. In words: inhibition of tumour cell growth, NCI panel, 48 h.
In the case of `COC(=O)CNC(=O)C(C)NC(=O)C(CC(=O)OCc1ccccc1)NC(=O)OCc1ccccc1` (stereo not drawn) (Cbz-Asp(OBn)-Ala-Gly-OMe; configuration not given here), the TGI is greater than 100 µM.
On the same count and under the same terms, the figure for `CC(C)=CCOc1cc(NC(=S)c2ccoc2C)ccc1Cl` is greater than 100 µM.
As to `C[C@H]1[C@H](C)N(Cc2ccccc2)P(=O)(C(O)/C=C/c2ccccc2)N1Cc1ccccc1` (some centres not stated), the TGI amounted to 16.9 µM.
As to `O=C1c2cc3c(cc2CC12Cc1cc4c(cc1C2=O)CCCC4)CCCC3`, the TGI was greater than 100 µM.
Consider `O=C1CSC2(CC(/C=C/c3ccccc3O)=NN2c2cccc(S(=O)(=O)O)c2)N1c1nc2ccccc2s1` (configuration not stated), for which the TGI was greater than 100 µM.
In turn, `CC1(C)C(=O)N(O)C(C)(C)N1O` gave a TGI greater than 10 µM.
`CCOC(=O)/C(O)=C(/C=N\C(=S)Nc1ccccc1Cl)C(=O)OCC` came in with a TGI greater than 100 µM.
As to `O=C(NC(C(F)(F)F)(C(F)(F)F)P(=O)(c1ccccc1)c1ccccc1)C(C(F)(F)F)C(F)(F)F`, the TGI was greater than 100 µM.
In turn, `O=C1CC(=O)NC(=NN2C(=O)CSC2c2ccc(Cl)c(Cl)c2)N1` (configuration not stated) showed a TGI greater than 100 µM.
In the case of `O=C1NC(N2CCOCC2)=N/C1=C\c1cccs1`, the TGI is greater than 100 µM.
The same measure, in the same setting: the value for `CSc1nc2ccccc2c(=O)n1/N=C1\C(=O)N(CN2CCCCC2)c2ccc(Cl)cc21` was greater than 100 µM.

Another assay deals with K-562 leukemia. The experiment in a line: inhibition of tumour cell growth, NCI panel, 48 h.
In turn, `COC(=O)CNC(=O)C(C)NC(=O)C(CC(=O)OCc1ccccc1)NC(=O)OCc1ccccc1` (stereo not drawn) (Cbz-Asp(OBn)-Ala-Gly-OMe; configuration not given here) gave a TGI greater than 100 µM.
In turn, `C[C@H]1[C@H](C)N(Cc2ccccc2)P(=O)(C(O)/C=C/c2ccccc2)N1Cc1ccccc1` (some centres not stated) showed a TGI greater than 25 µM.
For `O=C1c2cc3c(cc2CC12Cc1cc4c(cc1C2=O)CCCC4)CCCC3`, the TGI was greater than 100 µM.
As to `O=C1CSC2(CC(/C=C/c3ccccc3O)=NN2c2cccc(S(=O)(=O)O)c2)N1c1nc2ccccc2s1` (configuration not stated), the TGI is greater than 100 µM.
With `CC1(C)C(=O)N(O)C(C)(C)N1O`, the TGI was greater than 10 µM.
The molecule `CCOC(=O)/C(O)=C(/C=N\C(=S)Nc1ccccc1Cl)C(=O)OCC` showed a TGI greater than 100 µM.
With `O=C(NC(C(F)(F)F)(C(F)(F)F)P(=O)(c1ccccc1)c1ccccc1)C(C(F)(F)F)C(F)(F)F`, the TGI was greater than 100 µM.
Take `O=C1CC(=O)NC(=NN2C(=O)CSC2c2ccc(Cl)c(Cl)c2)N1` (configuration not stated): the TGI is greater than 100 µM.
Same read-out and setting: the value for `CSc1nc2ccccc2c(=O)n1/N=C1\C(=O)N(CN2CCCCC2)c2ccc(Cl)cc21` was greater than 100 µM.

A further assay relates to RXF 393 renal. The experiment in a line: inhibition of tumour cell growth, NCI panel, 48 h.
In turn, `COC(=O)CNC(=O)C(C)NC(=O)C(CC(=O)OCc1ccccc1)NC(=O)OCc1ccccc1` (stereo not drawn) (Cbz-Asp(OBn)-Ala-Gly-OMe; configuration not given here) had a TGI of 68.6 µM.
Same read-out and setting: the figure for `CC(C)=CCOc1cc(NC(=S)c2ccoc2C)ccc1Cl` is greater than 100 µM.
Same read-out and setting: the figure for `C[C@H]1[C@H](C)N(Cc2ccccc2)P(=O)(C(O)/C=C/c2ccccc2)N1Cc1ccccc1` (some centres not stated) is 15.6 µM.
